In patent US5707821A, “Identification of phospholipase A2 inhibitors in Aβ peptide-mediated neurodegenerative disease” (priority 1995, dated 1998):
Where two headings read alike, the source gives them in different places.

Experiments:
[1] = system: IL-1β release by cultured human cortical microglia; experiment: IL-1β release (ELISA) from Aβ1-40-stimulated human microglia; format: cell-based
Procedure: (§1) Cultures of human cortical or hippocampal astrocytes and microglia were prepared using a modification of the procedure described for cortical neurons. Cortical tissue from fetuses of 16 to 20 weeks of gestation was washed 3 times in Ca^2+ /Mg^2+ free Hanks balanced salt solution (CMF HBSS) and then dissociated by repeated pipetting. The solution was brought to a final volume of 80 ml CMF HBSS for approximately 10 ml of tissue. DNase (Sigma) was added to a final concentration of 0.05 mg/ml. 20 ml of the solution was passed through one 100 μm nylon cell strained (Falcon). The cells were then centrifuged for 5 minutes at 200×G in an IEC Clinical Centrifuge and resuspended in a trypsin/EDTA solution (0.05% trypsin+0.53 mM EDTA in HBSS; Gibco) and incubated for 20 minutes at 37°C. (10 ml of trypsin was added per 2-3 ml of tissue). The trypsin was then inactivated by adding (MEM/FBS): Modified Eagle's Medium (MEM) containing 1% glucose, 1 mM sodium pyruvate, 1 mM glutamine, and supplemented with 10% fetal bovine serum (JRH). After adding a final concentration of 0.05 mg/ml DNase the cells were resuspended and then pelleted by centrifugation and resuspended in MEM/FBS. 1.6×10^8 cells were seeded in a T-150 tissue culture flask coated with polyethyleneimine (PEI). (10% PEI (Sigma) was diluted 1:10 in H2 O, filtered through a […] unit and then diluted into 150 mM sodium borate pH 8.5 at 1:100. The flasks were coated overnight at room temperature, washed two times in PBS and coated with 20 ml/flask of MEM/FBS at 37° C. for at least one hour prior to plating cells.) Cultures were maintained in a H2 O-saturated incubator with an atmosphere of 95% air/5% CO2 at 37° C. The culture medium was changed one and four days after plating and the cultures were then left undisturbed for at least one week. After approximately two weeks in vitro, the flasks were gently shaken and floating microglia were collected and centrifuged for 5 minutes at 200×G in an IEC Clinical Centrifuge. The microglia were reseeded in 96 well tissue culture plates at a density of 5,000-40,000 cells/well in 125 μl in MEM/FBS. Astrocyte cultures were prepared by multiple passaging of the established mixed brain cell cultures. Each T-150 was incubated for 3-4 minutes at 37°C. with a trypsin/EDTA solution (see above). The trypsin was then inactivated by adding MEM/FBS. The cells were triturated and then pelleted by centrifugation and resuspended in MEM/FBS. The cells from one T-150 were seeded at a 1:30 to 1:5 dilution in T-150's not coated. Just prior to confluency the cells were repassaged by trypsinization as described above. This process was repeated until the cultures were >98% pure astrocytes.
(§2) Cultured microglial cells were treated with 50 μM of Aβ1-40 or vehicle only (Control). The levels of IL-1β, IL-6, and TNF-α released into the culture medium were determined by ELISA assay (R&D Systems) according to manufacturer's instructions.
(§3) The effect of two benzenesulfonamide inhibitors of PLA2 (European Patent Application 468 054) were examined on the activation of microglial cells by Aβ1-40 as in Example 1.
(§4) The effects of the benzenesulfonamide PLA2 inhibitor AN20606 and the selective cytosolic PLA2 inhibitor arachidonyl trifluoromethyl ketone (AN20579) were examined in cultured human cortical microglia for their selectivity for inhibiting microglia activation mediated by amyloid-βpeptide and lipopolysaccharides (LPS). LPS are a major constituent of the cell wall of gama-negative bacteria and are extensively used for generating inflammatory responses in cultured cells and in vivo.

[2] = system: TNF-α release by cultured human cortical microglia; experiment: TNF-α release (ELISA) from Aβ1-40-stimulated human microglia; format: cell-based
Procedure: as §1, §2, §3, §4

[3] = system: IL-1β release by cultured human cortical microglia; experiment: IL-1 release from LPS-stimulated human cortical microglia; format: cell-based
Procedure: as §1, §4

[4] = system: TNFα release by cultured human cortical microglia; experiment: TNF release from LPS-stimulated human cortical microglia; format: cell-based
Procedure: as §1, §4

[5] = system: human cortical neurons; experiment: Aβ neurotoxicity in human cortical neurons (alamarBlue), 2 h pretreatment with inhibitor; format: cell-based; conditions: for Emax / IC50: Homo sapiens, Cortical neurone; for Emax: 72 h, read-out: Max Inh; for IC50: ND = not detected at the concentration range used, read-out: IC50 (dose that inhibited Aβ-mediated neurotoxicity by 50%)
Procedure: (§5) Cultures of human cortical or hippocampal neurons were prepared using a modification of the procedure described in P. Seubert et al. (1992), Nature 359:325-327. Cortical or hippocampal tissue was dissociated by incubation in a trypsin/EDTA solution (0.05% trypsin +0.53 mM EDTA in HBSS; Gibco) for 20 minutes at 37° C. The trypsin was then inactivated by resuspending the cells in serum-containing medium (MEM/FBS): Modified Eagle's Medium (MEM) containing 1% glucose, 1 mM sodium pyruvate, 1 mM glutamine, and supplemented with 10% fetal bovine serum (Gibco). Cells were then pelleted by centrifugation and resuspended in a chemically-defined medium (MEM/B27): MEM containing B27 supplement (Gibco) in place of FBS. Polyethyleneimine (PEI)-coated 6.4-mm (96-well) dishes were rinsed once with MEM/FBS, and then seeded at 0.75-1.25×10^5 cells per well in 0.1 ml MEM/B27. Cultures were maintained in a H2 O-saturated incubator with an atmosphere of 95% air/5% CO2 at 37° C. The culture medium was exchanged twice weekly.
(§6) Amyloid-β (Aβ) stock solutions were prepared as 1 mM stocks in sterile ddH2 O immediately prior to addition to cultures. Rat cortical neurons were exposed to Aβ by removing the culture medium and replacing it with DMEM/N2 or DMEM/B27 containing Aβ1-40. Human cortical neurons were exposed to Aβ by removing the culture medium and replacing it with MEM, MEM/N2, or MEM/B27 containing Aβ1-40. Cultures were maintained for 2-4 days before neuronal survival was quantified using alamarBlue™.
(§7) The alamarBlue™ assay incorporated a proprietary fluorometric/colorimetric metabolic indicator (Alamar Biosciences, Inc.). Viable cells convert alamarBlue™ from an oxidized (non-fluorescent, blue) form to a reduced (fluorescent, red) form. Assays were performed by replacing the culture media with a 10% alamarBlue™ solution in DMEM (rat cortical cultures) or MEM (human cortical cultures). Reduction of alamarBlue™ was determined spectrofluorometrically using a Millipore Cytofluor 2350 Scanner (excitation, […]; emission, 590 nm) and CytoCalc™ software (Millipore Corporation).
The effect of pretreating human cortical neuron cultures with the benzenesulfonamide PLA2 inhibitors and arachidonyl trifluoromethyl ketone prior to exposure to a neurotoxic concentration of Aβ1-40 was determined.
(§8) Human cortical neurons were treated with 50 μM Aβ1-40 and various inhibitors of PLA2. Compounds were added 2 hours prior to Aβ1-40 treatment at concentrations of 390 nM to 100 μM, and were then re-added at the time of Aβ1-40 treatment. Compounds were also added in an identical manner to neuronal cultures in the absence of Aβ1-40. Neuronal survival was determined after 3 days of treatment by alamarBlue®. IC50 is the dose of compound that inhibited Aβ-mediated neurotoxicity by 50%. […] Data represents the mean ± SD (n=3). ND, not detected at the concentration range used.

[6] = system: Ca^+2 -independent PLA2; conditions: Ackermann et al. (1995); cited from earlier work
[7] = system: cPLA2; conditions: Street et al. (1993); cited from earlier work
[8] = system: human cortical neurons; experiment: Aβ neurotoxicity / survival of human cortical neurons (alamarBlue), compound added at time of Aβ1-40; format: cell-based
Procedure: as §5, §6, §7
The effect of the two benzenesulfonamide inhibitors of PLA2 in Example 2 were examined to determine the dose-dependence of their effect on neuronal survival in human cortical neuron cultures exposed to 0 μM, 25μM, or 50 μM of Aβ1-40 and varying doses of the benzenesulfonamide.
as §8, with “PLA2 or PLC.” for “PLA2.”, “added” for “added 2 hours prior to Aβ1-40 treatment at concentrations of 390 nM to 100 μM, and were then re-added”, “treatment at concentrations 390 nM to 100 μM.” for “treatment.”, “added” for “added in an identical manner”

[9] = system: human cortical neurons; experiment: Compound toxicity to human cortical neurons in absence of Aβ1-40 (alamarBlue, 3 days); format: cell-based
Procedure: as §5, §7
as §8, with “PLA2 or PLC.” for “PLA2.”, “added” for “added 2 hours prior to Aβ1-40 treatment at concentrations of 390 nM to 100 μM, and were then re-added”, “treatment at concentrations 390 nM to 100 μM.” for “treatment.”, “added” for “added in an identical manner”

[10] = system: human cortical neurons; experiment: Compound toxicity to human cortical neurons in absence of Aβ1-40, added as in pretreatment protocol; format: cell-based; conditions: no Aβ1-40, 3 days; for TD10 (concentration giving 10% loss of neuronal survival): n=3
Procedure: as §5, §7, §8

[11] = Compound toxicity to human cortical neurons in absence of Aβ1-40 (alamarBlue, 3 days); format: cell-based; conditions: human, cortical neurons
Procedure: as §5, §7
as §8, with “PLA2 or PLC.” for “PLA2.”, “added” for “added 2 hours prior to Aβ1-40 treatment at concentrations of 390 nM to 100 μM, and were then re-added”, “treatment at concentrations 390 nM to 100 μM.” for “treatment.”, “added” for “added in an identical manner”

[12] = 50 μM Aβ1-40, inhibitor 20 μM where present
[13] = 10 ng/ml LPS, inhibitor 20 μM where present
[14] = 50 μM Aβ1-40, 1 day, compound 0, 5, 10, 20 μM, FIG. 2
[15] = 50 μM Aβ1-40, compound 390 nM to 100 μM added at time of Aβ, 3 days, n=3
[16] = 50 μM Aβ1-40, compound 390 nM to 100 μM, 2 h pretreatment and re-added with Aβ, 3 days, n=3

## CCCCC/C=C\C/C=C\C/C=C\C/C=C\CCCC(=O)C(F)(F)F [AACOCF3, arachidonyl trifluoromethyl ketone]
[1]; [12]
  IL-1 Released: 36 ± 7.2 pg/mL
[1]; Aβ1-40 versus LPS stimulation
  Aβ1-40-mediated IL-1β release, selectivity versus LPS (in words): selectively inhibited
[1]; Homo sapiens, Microglia, 50 μM Aβ1-40 + 20 μM inhibitor, read-out: IL-1 Released, percent in parentheses (relative to Aβ1-40 alone)
  activity at 20 µM: 13%
[2]; [12]
  TNF Released: 54.8 ± 9.4 pg/mL
[2]; Aβ1-40 versus LPS stimulation
  Aβ1-40-mediated TNFα release, selectivity versus LPS (in words): selectively inhibited
[2]; Homo sapiens, Microglia, 50 μM Aβ1-40 + 20 μM inhibitor, read-out: TNF Released, percent in parentheses (relative to Aβ1-40 alone)
  activity at 20 µM: 52%
[3]; [13]
  IL-1 Released: 51 ± 6.4 pg/mL
[3]; Homo sapiens, Microglia, 10 ng/ml LPS + 20 μM inhibitor, read-out: IL-1 Released, percent in parentheses (relative to LPS alone)
  activity at 20 µM: 225%
[3]; LPS stimulation
  LPS-mediated cytokine release, IL-1 (in words): actually enhanced
[4]; [13]
  TNF Released: 785 ± 50 pg/mL
[4]; Homo sapiens, Microglia, 10 ng/ml LPS + 20 μM inhibitor, read-out: TNF Released, percent in parentheses (relative to LPS alone)
  activity at 20 µM: 161%
[4]; LPS stimulation
  LPS-mediated cytokine release, TNF (in words): actually enhanced
[5]; pretreatment two hours, three days, FIG. 6
  neuronal death resulting from Aβ1-40 exposure (in words): substantially decreased neuronal death
[6]
  inhibition of Ca^+2 -independent PLA2 activity: capable of inhibiting
[7]
  inhibition of cPLA2: capable of inhibiting

## CN(C(=O)/C=C/c1ccc(C#N)cc1)c1ccc(S(=O)(=O)NC2CCCCCC2)cc1 [AN20628]
[1]; [14]
  amount of IL-1β released into the medium (in words): marked and dose-dependent decrease
[2]; [14]
  amount of TNF-α released into the medium (in words): marked and dose-dependent decrease
[8]; 0, 25 or 50 μM Aβ1-40, varying doses, FIG. 3, FIG. 4
  neuronal survival in the presence of pathogenic Aβ peptide (in words): dose-dependent increase in neuronal survival
[8]; [15]
  Max Inh: 82%
[8]; Homo sapiens, Cortical neurone, 72 h, 50 μM Aβ1-40, compound 390 nM to 100 μM added at time of Aβ, 3 days, n=3, ND = not detected at the concentration range used, read-out: IC50 (dose that inhibited Aβ-mediated neurotoxicity by 50%)
  IC50: 8 µM
[9]; human, 4320 min
  TD10 (concentration giving 10% loss of neuronal survival): 73 µM
[5]; [16]
  Emax: 87%
  IC50: 4 µM

## O=C1O/C(=C/Br)CCC1c1cccc2ccccc12 (stereo not drawn) [Bromoenol Lactone, (e)-6-(bromomethylene)tetrahydro-3-(1-naphthalenyl)-2H-pyran-2-one]
[5]; [16]
  Emax: 41%
[6]
  inhibition of Ca^+2 -independent PLA2 activity: capable of inhibiting
[7]
  inhibition of cPLA2: capable of inhibiting

## CCCCCCCCCCCC=CC(C)(C)C=CCCCC(=O)O [DEDA, 7,7,-dimethyl-5,8-eicosadienoic acid]
[5]; [16]
  Emax: 19%

## C[C@H]1c2cccc(O)c2C(O)=C2C(=O)[C@]3(O)C(O)=C(C(N)=O)C(=O)[C@@H](N(C)C)[C@@H]3[C@@H](O)[C@@H]21 [Doxycycline]
[5]; [16]
  Emax: 0%

## CN(C)c1ccc(O)c2c1C[C@H]1C[C@H]3[C@H](N(C)C)C(O)=C(C(N)=O)C(=O)[C@@]3(O)C(O)=C1C2=O [Minocycline]
[5]; [16]
  Emax: 69%
  IC50: 71 µM
[10]
  TD10 (concentration giving 10% loss of neuronal survival): 78 µM

## CCN(CC)CCCC(C)Nc1c2ccc(Cl)cc2nc2ccc(OC)cc12 (stereo not drawn) [Quinacrine]
[8]; [15]
  Max Inh: 2%
[11]
  CC50 at 72 h: 9 µM
[9]; human, 4320 min
  TD10 (concentration giving 10% loss of neuronal survival): 6 µM

## COc1ccc2c(c1)CC[C@@H]1[C@@H]2CC[C@]2(C)[C@@H](NCCCCCCN3C(=O)CCC3=O)CC[C@@H]12 [U73343]
[8]; [15]
  Max Inh: 10%
[11]; no Aβ1-40, 3 days, 390 nM to 100 μM, n=3, ND = not detected at the concentration range used, read-out: TD50 (concentration giving 50% loss of neuronal survival)
  CC50 at 72 h: 8 µM
[9]; no Aβ1-40, 3 days, 390 nM to 100 μM, n=3
  TD10 (concentration giving 10% loss of neuronal survival): 6 µM

## CCCCCCCCCCCCCCCC(=O)C(F)(F)F [palmitoyl trifluoromethyl ketone]
[6]
  inhibition of Ca^+2 -independent PLA2 activity: capable of inhibiting
[7]
  inhibition of cPLA2: capable of inhibiting

## Oleoyloxyethyl Phosphocholine
[5]; [16]
  Max Inh: 40%
[10]
  TD10 (concentration giving 10% loss of neuronal survival): 17 µM
[10]; n=3, ND = not detected at the concentration range used, read-out: TD50 (concentration giving 50% loss of neuronal survival)
  CC50: 29 µM
